This is an account of results in US5075301A, “Furan derivatives useful for the treatment of gastro-intestinal disorders” (Kyowa Hakko Kogyo, Co., Ltd., priority 1989, dated 1991).

One data set relates to male dd mice. Nature of the data set: Acute toxicity test (minimum lethal dose, MLD). Type of data set: in vivo. The note with it: p.o., 7 days. The procedure:
Using male dd mice weighing 20±1 g in groups of 3, each test compound was orally administered (300 mg/kg, p.o.).

The test system of a further data set is ileal strips. Briefly: Gastrointestinal motility stimulation test (ileal strip, electric transmural stimulation). Also noted: species or system male Hartley guinea pigs. The note with it: Cavia porcellus; for activation at 1 µg/mL: read-out: Amplification Degree (Electric Transmural Stimulation), 10^-6 g/ml; for activation at 10 µg/mL: read-out: Amplification Degree (Electric Transmural Stimulation), 10^-5 g/ml. As for the experimental part:
From male Hartley guinea pigs weighing 250-400 g, ileal strips, 2-3 cm long, were isolated. The ileal strip was suspended in a Tyrode's solution bath (30 ml) while supplying a mixture gas of 95% O2 -5% CO2 and maintained at 37±1° C. and using an isotonic transducer the longitudinal contractions of the strip were recorded. Supramaximal electric transmural stimulation of 1-millisecond duration was given at 10-second intervals. Each test compound was dissolved or suspended in physiological saline and added into the organ bath. The effect of each test compound on electric transmural stimulation was calculated from the amplitude of contractions (A) before administration and the amplitude of contractions (B) after administration using the following equation. [formula]

For data set [1], the system named is histamine H2 -receptor. Briefly: antihistaminic (histamine H2 -receptor blocking) activity. The note with it: no method given.
For data set [2], the system named is histamine H2 -receptor. The following applies: known; cited from earlier work.
The test system of another data set is gastrointestinal tract. The following applies: Scand. J. Gastroenterol., 21 (Suppl. 121), 30 (1986); cited from earlier work.

In the case of `CCN(C)Cc1ccc(CNCCN2CCNC2=C(C#N)C#N)o1` [Compound 25, [1-[2-[(5-Ethylmethylaminomethyl-2-furanyl)methylamino]ethyl]-2-imidazolidinylidene]propanedinitrile], the “Acute Toxicity (MLD)” value in the data set with male dd mice is more than 300 mg/kg. Moreover, the activation at 1 µg/mL with ileal strips is 63.5%.
As for `CN(CCN1CCNC1=C(C#N)C#N)Cc1ccc(CN2CCCCC2)o1` [Compound 45, [1-[2-[N-(Methyl)-N-[(5-piperidinomethyl-2-furanyl)methyl]amino]ethyl]-2-imidazolidinylidene]-propanedinitrile], in the data set with male dd mice, the “Acute Toxicity (MLD)” value is listed as more than 300 mg/kg. For the same compound, in the data set on ileal strips, the activation at 10 µg/mL is 72.1% and the activation at 1 µg/mL is 43.8%.
For the compound `CNC(NCCNCc1ccc(CN(C(C)C)C(C)C)o1)=C(C#N)C#N` [Compound 12, [[2-[(5-Diisopropylaminomethyl-2-furanyl)methylamino]ethyl]amino(methylamino)methylene]propanedinitrile], the “Acute Toxicity (MLD)” value with male dd mice is more than 300 mg/kg. Also, in the data set on ileal strips, the activation at 10 µg/mL turned out to be 55.8% and the activation at 1 µg/mL turned out to be 34.3%.
For `CNC(NCCNCc1ccc(CN(C)C)o1)=C(C#N)C#N` [Compound 2, [[2-[(5-Dimethylaminomethyl-2-furanyl)methylamino]ethyl]amino(methylamino)methylene]propanedinitrile], in that order: more than 300 mg/kg, 80.5% and 31%.
The like results for `CNC(NCCNC(=O)c1ccc(CN(C)C)o1)=C(C#N)C#N` [Compound 10, 5-(Dimethylaminomethyl)-N-[2-(1-methylamino-2,2-dicyanovinylamino)ethyl]-2-furancarboxamide] were, in that order, more than 300 mg/kg, 36.4% and 15.3%.
Turning to `N#CC(C#N)=C1NCCN1CCNCc1ccc(CN2CCCCCC2)o1` [Compound 29, [1-[2-[(5-Perhydroazepinylmethyl-2-furanyl)methylamino]ethyl]-2-imidazolidinylidene]propanedinitrile], the “Acute Toxicity (MLD)” value in the data set on male dd mice worked out at 200 mg/kg. In the data set with ileal strips, the activation at 1 µg/mL was 68%.
On to `N#CC(C#N)=C1NCCN1CCNCc1ccc(CN2CCSCC2)o1` [Compound 38], for which the “Acute Toxicity (MLD)” value in the data set with male dd mice was more than 300 mg/kg. In the data set on ileal strips, the activation at 1 µg/mL stood at 34.5%.
Take `CNC(=C[N+](=O)[O-])NCCSCc1ccc(CN(C)C)o1` [Ranitidine, reference compound]: the “Acute Toxicity (MLD)” value in the data set on male dd mice is listed as more than 300 mg/kg. Further, in the data set with ileal strips, the activation at 10 µg/mL was determined as 42.2% and the activation at 1 µg/mL came to 35%. For the same compound, the antihistaminic activity result in the data set on histamine H2 -receptor [1] is recorded as “found”. In addition, the “histamine H2 -receptor blocking activity” value in the data set with histamine H2 -receptor [2] is given as “having histamine H2 -receptor blocking activity”. The “activity to stimulate motility of the gastrointestinal tract” value in the data set with gastrointestinal tract is given as “weak”.
Consider `CNC(=C[N+](=O)[O-])NCCNCc1ccc(CN(C)C)o1` [Compound 1, N-[2-[(5-Dimethylaminomethyl-2-furanyl)methylamino]ethyl]-N'-methyl-2-nitroethene-1,1-diamine], for which, in the data set on male dd mice, the “Acute Toxicity (MLD)” value is recorded as more than 300 mg/kg. In addition, the activation at 10 µg/mL in the data set on ileal strips amounted to 30%.
Turning to `COC1CCCN(Cc2ccc(CNCCN3CCNC3=C(C#N)C#N)o2)C1` (centres unmarked) [Compound 34, [1-[2-[[5-(3-Methoxypiperidinomethyl)-2-furanyl]methylamino]ethyl]-2-imidazolidinylidene]propanedinitrile], the “Acute Toxicity (MLD)” value in the data set with male dd mice was more than 300 mg/kg. In the data set with ileal strips, the activation at 10 µg/mL is 81.3% and the activation at 1 µg/mL worked out at 23%.
For `CNC(NCCNCc1ccc(CN2CCCC2)o1)=C(C#N)C#N` [Compound 13, [[2-[(5-Pyrrolidinylmethyl-2-furanyl)methylamino]ethyl](methylamino)methylene]propanedinitrile], in that order: more than 300 mg/kg, 70.8% and 34.5%.
Consider `CNc1c(NCCNCc2ccc(CN3CCCCC3)o2)c(=O)c1=O` [Compound 17, 1-Methylamino-2-[[2-[(5-piperidinomethyl-2-furanyl)methylamino]ethyl]amino]cyclobutene-3,4-dione], for which the “Acute Toxicity (MLD)” value in the data set on male dd mice is more than 300 mg/kg. In the data set on ileal strips, the activation at 10 µg/mL was 75% and the activation at 1 µg/mL amounted to 19.5%.
On to `CNC(NCCCNCc1ccc(CN(C)C)o1)=C(C#N)C#N` [Compound 6, [[3-[(5-Dimethylaminomethyl-2-furanyl)methylamino]propylamino](methylamino)methylene]propanedinitrile], for which the “Acute Toxicity (MLD)” value in the data set with male dd mice is recorded as more than 300 mg/kg. In addition, the activation at 10 µg/mL in the data set with ileal strips stood at 34%.
With `CC1CCN(Cc2ccc(CNCCN3CCNC3=C(C#N)C#N)o2)CC1` [Compound 32, [1-[2-[[5-(4-Methylpiperidinomethyl)-2-furanyl]methylamino]ethyl]-2-imidazolidinylidene]propanedinitrile], the “Acute Toxicity (MLD)” value in the data set with male dd mice is on record as more than 300 mg/kg. Besides, in the data set with ileal strips, the activation at 1 µg/mL came out at 52%.
As to `CN(C)Cc1ccc(CNCCN2CCNC2=C(C#N)C#N)o1` [Compound 22, [1-[2-[(5-Dimethylaminomethyl-2-furanyl)methylamino]ethyl]-2-imidazolidinylidene]propanedinitrile], in the data set on male dd mice, the “Acute Toxicity (MLD)” value is on record as more than 300 mg/kg. Also, the activation at 1 µg/mL with ileal strips came out at 56%.
`N#CC(C#N)=C1NCCN1CCNCc1ccc(CN2CCCC2)o1` [Compound 27, [1-[2-[(5-Pyrrolidinylmethyl-2-furanyl)methylamino]ethyl]-2-imidazolidinylidene]propanedinitrile]: the “Acute Toxicity (MLD)” value with male dd mice is reported as more than 300 mg/kg. Also, the activation at 1 µg/mL with ileal strips was found to be 12%.
With `CCN(CC)CCNC(=O)c1cc(Cl)c(N)cc1OC` [Metoclopramide, reference compound], in the data set on male dd mice, the “Acute Toxicity (MLD)” value stood at 200 mg/kg. Besides, in the data set on ileal strips, the activation at 10 µg/mL was determined as 33.4% and the activation at 1 µg/mL is 18%.
For `CNC(NCCNCc1ccc(CN2CCCCC2)o1)=C(C#N)C#N` [Compound 14, [[2-[(5-Piperidinomethyl-2-furanyl)methylamino]ethyl](methylamino)methylene]propanedinitrile], in that order: more than 300 mg/kg, 79.3% and 37.3%.
Regarding `N#CC(C#N)=C1NCCN1CCNCc1ccc(CN2CCCCC2)o1` [Compound 28, [1-[2-[(5-Piperidinomethyl-2-furanyl)methylamino]ethyl]-2-imidazolidinylidene]propanedinitrile], the “Acute Toxicity (MLD)” value with male dd mice turned out to be 100 mg/kg.
